Values quoted from earlier work as cited in patent publication US20100113581A1, “COMBINATION THERAPIES FOR THE TREATMENT OF OBESITY” (priority 2008, published 2010).

Experiments:
[1] = published studies of weight loss medications
[2] = cyclodextrin derivatives

Compound | weight loss of body weight for drug compared with placebo [1] | solubility in water [2]
CCN[C@@H](C)Cc1cccc(C(F)(F)F)c1 [dexfenfluramine] | about 5% | 
CCCCCCCCCCC[C@@H](C[C@@H]1OC(=O)[C@H]1CCCCCC)OC(=O)[C@H](CC(C)C)NC=O [orlistat] | about 5% | 
CC(C)CC(N(C)C)C1(c2ccc(Cl)cc2)CCC1 (centres unmarked) [sibutramine] | about 5% | 
G-2-beta-cyclodextrin |  | 147 % (w/v)
triacetyl-beta-cyclodextrin |  | insoluble
